Data published in article PMC12664493, “Asparagine endopeptidase (AEP) inhibitor formulation via zein-based nanoparticle improves the therapeutic efficacy toward Alzheimer's disease” (Neurotherapeutics, 2025).

Experiments:
AEP [1] = target: T1, AEP (Rattus norvegicus, UniProt Q9R0J8); assay: AEP inhibition in cultured primary neurons; type: cell-based
T1 construct: endogenous in cells; host or cells: primary rat cortical neurons
T1 sequence (Q9R0J8 18-435): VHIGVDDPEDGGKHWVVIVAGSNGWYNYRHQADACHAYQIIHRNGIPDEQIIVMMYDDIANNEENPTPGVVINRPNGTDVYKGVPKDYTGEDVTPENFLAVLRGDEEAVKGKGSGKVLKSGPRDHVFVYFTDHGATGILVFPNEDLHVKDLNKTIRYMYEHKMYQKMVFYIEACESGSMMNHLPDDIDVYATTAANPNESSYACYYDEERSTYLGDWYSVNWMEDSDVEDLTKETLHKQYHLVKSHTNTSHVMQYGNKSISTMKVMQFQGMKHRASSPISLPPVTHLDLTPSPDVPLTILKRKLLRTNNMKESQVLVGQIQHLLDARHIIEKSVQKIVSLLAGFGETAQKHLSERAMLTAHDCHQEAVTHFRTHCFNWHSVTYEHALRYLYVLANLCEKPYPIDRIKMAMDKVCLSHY

AEP [2] = target: T1, AEP; assay: Titration assay of Aβ42-induced AEP activation in primary neurons (immunoblotting); type: cell-based; details: 2 μM pre-aggregated Aβ42, 24 h
[3] = Stability in human liver microsomes; type: in vitro ADME
[4] = Stability in mouse hepatocytes; type: in vitro ADME
[5] = Plasma protein binding, human; type: in vitro ADME
[6] = Plasma protein binding, mouse; type: in vitro ADME
P-glycoprotein (MDR1) = target: T2, P-glycoprotein (MDR1) (Homo sapiens, UniProt P08183); assay: MDR1-MDCKII permeability assay (P-glycoprotein efflux); type: in vitro ADME; details: dog, MDCK-MDR1
T2 construct: expressed in transfected cells; host or cells: MDCKII

AEP [7] = target: T3, AEP (Mus musculus, UniProt O89017); assay: Acute PD in 3xTg mice: brain AEP enzymatic activity and immunoblotting; type: in vivo; details: 2 h
T3 construct: from tissue; host or cells: brain / hippocampus of 3xTg mice
T3 sequence (O89017 18-435): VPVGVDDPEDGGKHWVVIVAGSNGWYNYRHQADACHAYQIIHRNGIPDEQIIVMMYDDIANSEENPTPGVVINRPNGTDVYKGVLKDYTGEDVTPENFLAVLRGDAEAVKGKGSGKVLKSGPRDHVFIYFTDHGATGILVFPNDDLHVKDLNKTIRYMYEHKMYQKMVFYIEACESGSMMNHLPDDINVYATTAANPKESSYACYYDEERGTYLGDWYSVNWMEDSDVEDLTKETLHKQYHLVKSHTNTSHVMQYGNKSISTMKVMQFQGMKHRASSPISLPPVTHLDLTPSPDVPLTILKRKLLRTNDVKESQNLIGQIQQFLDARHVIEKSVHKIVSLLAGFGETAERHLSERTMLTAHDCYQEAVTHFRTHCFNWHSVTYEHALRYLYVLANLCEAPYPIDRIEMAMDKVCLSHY

AEP [8] = target: T3, AEP; assay: Chronic one-month oral treatment of 3xTg mice: AEP activation and substrate cleavage; type: in vivo; details: 7.5 mg/kg P.O. daily
Aβ42 = assay: Aβ ELISA of brain tissue of 3xTg mice; type: in vivo, mouse; details: 7.5 mg/kg P.O. daily, one month

T2 sequence (P08183 whole entry): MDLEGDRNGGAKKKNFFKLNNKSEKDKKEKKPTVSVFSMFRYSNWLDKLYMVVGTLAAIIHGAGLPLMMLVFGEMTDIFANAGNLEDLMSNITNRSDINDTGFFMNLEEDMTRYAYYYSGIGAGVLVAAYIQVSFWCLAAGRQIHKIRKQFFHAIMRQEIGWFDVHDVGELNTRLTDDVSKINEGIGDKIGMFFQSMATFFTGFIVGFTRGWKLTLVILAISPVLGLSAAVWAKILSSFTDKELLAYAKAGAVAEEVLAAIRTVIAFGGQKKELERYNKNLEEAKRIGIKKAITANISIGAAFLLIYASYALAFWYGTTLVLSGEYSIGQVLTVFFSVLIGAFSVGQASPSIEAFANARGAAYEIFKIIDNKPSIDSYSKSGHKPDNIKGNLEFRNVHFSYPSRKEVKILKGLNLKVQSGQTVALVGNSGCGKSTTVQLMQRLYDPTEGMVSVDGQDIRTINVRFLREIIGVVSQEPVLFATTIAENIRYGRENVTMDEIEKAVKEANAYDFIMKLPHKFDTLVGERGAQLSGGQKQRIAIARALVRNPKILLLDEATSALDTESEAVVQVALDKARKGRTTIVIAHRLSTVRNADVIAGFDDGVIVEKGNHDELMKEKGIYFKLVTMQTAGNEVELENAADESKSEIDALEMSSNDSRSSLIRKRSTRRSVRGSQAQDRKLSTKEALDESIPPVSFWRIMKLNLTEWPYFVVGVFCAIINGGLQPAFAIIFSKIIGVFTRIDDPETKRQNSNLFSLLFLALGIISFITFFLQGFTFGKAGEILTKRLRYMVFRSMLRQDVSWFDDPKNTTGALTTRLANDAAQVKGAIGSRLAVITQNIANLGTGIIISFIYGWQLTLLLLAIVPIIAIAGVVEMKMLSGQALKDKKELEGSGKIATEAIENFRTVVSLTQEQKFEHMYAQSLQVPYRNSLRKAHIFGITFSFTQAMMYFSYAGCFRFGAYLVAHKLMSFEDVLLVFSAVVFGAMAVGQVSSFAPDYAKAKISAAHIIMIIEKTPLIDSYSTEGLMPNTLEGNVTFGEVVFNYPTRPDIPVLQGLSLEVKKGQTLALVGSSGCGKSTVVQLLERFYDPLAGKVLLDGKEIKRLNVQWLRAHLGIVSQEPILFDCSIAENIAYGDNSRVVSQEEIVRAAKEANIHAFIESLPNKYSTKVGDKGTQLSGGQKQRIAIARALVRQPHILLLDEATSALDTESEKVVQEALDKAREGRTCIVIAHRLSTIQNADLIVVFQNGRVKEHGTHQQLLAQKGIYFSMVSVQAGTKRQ

## CC(C)Nc1nnc(Nc2cc(CO)c(N3CCOCC3)c3nonc23)s1 [11a-isopropyl]
AEP [1]
  IC50: 63 nM
AEP [2]
  Aβ42-induced AEP activation: suppressed AEP activation in a dose-dependent manner
[3]
  microsomal CLint: 3.6 µL/min/mg
[3]; read-out: Stability-Microsomes T1/2
  half-life: > 4 h
[4]
  hepatocyte CLint: 9 µL/min/1e6 cells
[4]; read-out: Stability-Hepatocytes T1/2
  half-life: 2.55 h
[5]
  Plasma Protein F u, plasma(%): 13.8%
[6]
  Plasma Protein F u, plasma(%): 20.4%
[6]; plasma, as a fraction, from Table S1, read-out: Unbound plasma fraction (fu, plasma)
  fraction unbound: 0.204
P-glycoprotein (MDR1); a-b, first value in brackets
  Papp A→B: 0.568 ×10⁻⁶ cm/s
P-glycoprotein (MDR1); b-a, second value in brackets
  Papp B→A: 61.9 ×10⁻⁶ cm/s
AEP [7]; acute P.O. 7.5 and 15 mg/kg, dose-dependent
  AEP enzymatic activity in the brain: substantially inhibited
AEP [7]; acute P.O.
  Active AEP band intensity, hippocampus immunoblotting: further suppressed
AEP [8]
  AEP activation, APP N585 and Tau N368 fragmentation, hippocampus immunoblotting: gradually reduced
Aβ42
  Aβ42 level in brain, ELISA: significantly reduced
